Assays:
primary murine HSCs = assay: Lipid droplet accumulation assay (BODIPY staining); type: cell-based, mouse; conditions: day 6, JQ1 500 nM
Procedure: Primary murine HSCs were seeded onto chamber slides (Nunc). […] Media was aspirated, cells were washed twice with PBS (Gibco) and fixed in 10% buffered formalin at room temperature for 15 minutes. Fixative was removed and cells were washed three times with PBS. […] Dye was removed and cells were washed three times with PBS, then mounted using Vectastain mounting medium (Vector Labs). Fluorescence was visualized through the GFP filter on a Leica DM5000B fluorescent microscope. Nuclear counterstaining was performed using DAPI (Vector).

[1] = tested on: p53 2.1.1 cell line in FVB/n hosts; assay: Orthotopic allograft of p53 2.1.1 pancreatic cancer cells; type: in vivo, mouse
Procedure: The p53 2.1.1 cell line, a luciferase-expressing cell line derived from autochthonous pancreatic cancer in pure FVB/n mice, was used for orthotopic transplantation into pancreata of immune-competent FVB/n hosts. Cells were resuspended in 50% DMEM+10% FBS, 50% Matrigel and 1,000 cells per mouse were injected into the body of the pancreas. One week after transplantation, transplanted mice were subject to bioluminescence imaging to measure luciferase activity and, thus, tumor burden. […] Mice were imaged again to measure bioluminescence signal (tumor burden) at experimental endpoint; pancreata were removed, weighed, and fixed or flash-frozen for further analysis.

[2] = 75 mg/kg JQ1 i.p. daily for 14 days
[3] = 75 mg/kg JQ1 i.p. daily for 14 days vs vehicle

## Cc1sc2c(c1C)C(c1ccc(Cl)cc1)=N[C@@H](CC(=O)OC(C)(C)C)c1nnc(C)n1-2 [JQ1, (S)-tert-butyl 2-(4-(4-chlorophenyl)-2,3,9-trimethyl-6H-thieno[3,2-f][1,2,4]triazolo[4,3-a][1,4]diazepin-6-yl)acetate]
Primary murine HSCs
  morphology, Acta2 distribution and lipid content of treated cells: closely resembled quiescent (day 1) cells
[1]; [2]
  BLI and pancreas weight: significantly reduced
  number of phospho-H3+ tumor cells, and number of CD45 and DAPI containing cells: significantly reduced
[1]; [3]
  decrease in cell proliferation (phospho-H3+): about 50%
  decrease in leukocyte recruitment (CD45): about 70%
  decrease in luciferase light units (tumor cell count, tumor burden): about 33%
